Data set [1] has as its system melanoma cells (RPMI-7951). Set-up: method as in PMID 1431932. The conditions noted are these: cited from earlier work.
Data set [2] relates to K562. The data set is described as follows: P2Et adjuvant activity (MTT), K562. The data set is classed as cell-based, human. The conditions noted are these: sub-optimal tested concentrations.
Description: P2Et fraction adjuvant activity was assessed using K562 and MCF7 cells in combination with the well-known cancer treatment drugs doxorubicin, vincristine, taxol and camptothecin. Cell viability was evaluated by means of the MTT assay. […] Results are expressed as cell viability percentage relative to the control (100 × Treatment OD/Negative control OD).
K562 (A) or MCF7 (B) cells were treated with the P2Et fraction or ethanol (negative control) for 6 h, washed and treated with doxorubicin (Dx), vincristine (Vt), camptothecin (Ct) or taxol (Tx) at the concentrations shown over a 48 h period. Cell cytotoxicity was estimated using the MTT assay. Data represent three independent experiments. *** (p < 0.001).
Data set [3] relates to gingival fibroblasts. Put plainly: MTT cytotoxicity assay, gingival fibroblasts. The data set is classed as cell-based. The conditions noted are these: Homo sapiens, Fibroblast, normal gingival fibroblasts, concentration ± SE. The source says: (§1) The cell lines used as cancer cells were K562, a human erythroleukemia and MCF7, a human breast adenocarcinoma, from the American Type Culture Collection (ATCC); and the cell lines used as normal cells were human peripheral blood mononuclear cells (PBMC) and human fibroblasts obtained from normal healthy donors after informed consent was given. This project was approved by the ethics committee (founded in 2002) of the Science Faculty at a meeting on August 21, 2007. The culture conditions under which the cell lines were maintained have already been reported.
(§2) The cytotoxic effects of the fractions and conventional chemotherapeutic drugs (doxorubicin, etoposide, vincristine and taxol) were evaluated using normal and tumor cells by means of trypan blue and the methylthiazol tetrazolium (MTT) assay, as previously reported. The P2Et fraction was dissolve in ethanol and the corresponding vehicle was used as a negative control.
(§3) Figure 2 Induction of morphological changes and cytotoxicity in K562 cells by C. spinosa fractions without affecting normal human cells. […] Morphological changes were evaluated by direct observation using a light microscope at a magnification of 40X (B: 1. Ethanol; 2. S2Et; 3. P2Et; and 4. Etoposide). […]
(§4) Additionally, the cytotoxic activity of C. spinosa fractions was evaluated using gingival fibroblasts from the oral mucosa or normal human mononuclear cells. […]

For data set [4], the system named is PBMC. The data set is described as follows: MTT cytotoxicity assay, PBMC. The class given is cell-based. As to conditions: Homo sapiens, normal PBMC, concentration ± SE.
Text: as §1, §2, §3, §4

Data set [5] has as its system HL-60 cell line. Set-up: method as in PMID 10554885. As to conditions: cited from earlier work.

`O=C(O[C@H]1[C@H](O)C[C@](O)(C(=O)O)C[C@H]1OC(=O)c1cc(O)c(O)c(O)c1)c1cc(O)c(O)c(O)c1` [4,5-di-O-galloylquinic acid]: the “Cytotoxicity against melanoma cells” value in data set [1] is listed as “moderate cytotoxicity”. Consider `COc1cccc2c1C(=O)c1c(O)c3c(c(O)c1C2=O)C[C@@](O)(C(=O)CO)C[C@@H]3O[C@H]1C[C@H](N)[C@H](O)[C@H](C)O1` [Doxorubicin], for which the “Effect on cell viability, used separately” value in data set [2] was “slight effect”. Consider `COc1cc([C@@H]2c3cc4c(cc3[C@@H](O[C@@H]3O[C@@H]5CO[C@@H](C)O[C@H]5[C@H](O)[C@H]3O)[C@H]3COC(=O)[C@H]23)OCO4)cc(OC)c1O` [Etoposide], for which the half-inhibitory concentration (IC50) in data set [3] and in data set [4] was above 200 µg/mL throughout. On to `O=C(OC[C@H]1O[C@@H](OC(=O)c2cc(O)c(O)c(O)c2)[C@H](OC(=O)c2cc(O)c(O)c(O)c2)[C@@H](OC(=O)c2cc(O)c(O)c(O)c2)[C@@H]1OC(=O)c1cc(O)c(O)c(O)c1)c1cc(O)c(O)c(O)c1` [PGG, 1,2,3,4,6-penta-O-galloyl-β-D-glucose], for which the Induction of apoptosis result in data set [5] is reported as “able to induce caspase-mediated apoptosis”.

Values taken from article PMC3353181, “A gallotannin-rich fraction from Caesalpinia spinosa (Molina) Kuntze displays cytotoxic activity and raises sensitivity to doxorubicin in a leukemia cell line” (BMC Complementary and Alternative Medicine, 2012).
